# In patent US20200199575A1, “ROLE OF EXOSOMES, EXTRACELLULAR VESICLES, IN THE REGULATION OF METABOLIC HOMEOSTASIS” (CHILDREN'S HOSPITAL MEDICAL CENTER, priority 2017, published 2020):
# Entries after “also recorded” stand apart in the source; their conditions may differ.
# Assays:
# N-SMase = target: T1, N-SMase (Rattus norvegicus, UniProt O35049); conditions: rat brain; non-competitive inhibitor; cited from earlier work
# T1 construct: host or cells: rat brain
# T1 sequence (O35049 1-655): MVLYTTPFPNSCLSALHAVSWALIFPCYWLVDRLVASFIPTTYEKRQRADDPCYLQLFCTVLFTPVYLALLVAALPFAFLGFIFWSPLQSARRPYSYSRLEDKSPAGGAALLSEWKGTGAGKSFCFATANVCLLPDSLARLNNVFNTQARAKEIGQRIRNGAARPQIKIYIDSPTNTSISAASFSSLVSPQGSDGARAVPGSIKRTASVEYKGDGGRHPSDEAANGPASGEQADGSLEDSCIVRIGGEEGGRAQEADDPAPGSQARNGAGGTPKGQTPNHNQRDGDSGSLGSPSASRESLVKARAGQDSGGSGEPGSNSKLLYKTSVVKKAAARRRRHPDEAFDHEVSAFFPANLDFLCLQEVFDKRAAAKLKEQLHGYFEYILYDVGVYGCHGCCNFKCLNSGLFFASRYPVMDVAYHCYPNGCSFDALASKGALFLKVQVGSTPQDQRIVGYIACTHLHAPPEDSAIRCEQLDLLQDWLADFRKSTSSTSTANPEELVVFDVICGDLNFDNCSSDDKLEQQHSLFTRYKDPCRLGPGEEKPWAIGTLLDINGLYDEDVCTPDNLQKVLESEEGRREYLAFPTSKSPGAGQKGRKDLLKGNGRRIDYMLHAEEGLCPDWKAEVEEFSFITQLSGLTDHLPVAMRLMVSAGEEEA
# [1] = test system: exosome secretion and RNA loading onto exosomes; conditions: cited from earlier work
# SMPD3 = test system: SMPD3
# Text: (§1) (A) A scheme of the exosome transfer from cultured primary mouse hepatocytes to primary mouse bone marrow-derived macrophages (BMDMs). […] The same number of exosomes was used.
# (§2) SMPD3 plays a critical role in EV secretion and affects components of EV such as RNA.
# [2] = test system: primary mouse bone marrow-derived macrophages (BMDMs); test: Exosome transfer from treated primary mouse hepatocytes to bone marrow-derived macrophages, inflammatory response (IL-6 mRNA); conditions: PA 100 μM for 20 hours; exosome fraction by MagCapture kit
# Text: as §1, §2
Structure (SMILES),IC50 (N-SMase) [nM],Effect on RNA loading onto exosomes [1],Effect on exosome secretion [1],Expression of SMPD3 in cultured hepatocytes on palmitate exposure (SMPD3),Inflammatory effect (IL-6 mRNA expression) in BMDMs of exosomes from hepatocytes treated with palmitate [2]
Cl.Cl.O=C(/C=C/c1ccc(/C=C/C(=O)Nc2ccc(C3=NCCN3)cc2)cc1)Nc1ccc(C2=NCCN2)cc1 [GW4869],1000,inhibit,inhibit,,
CCCCCCCCCCCCCCCC(=O)O [palmitate],,,,induced,increase expression of IL-6 mRNA in BMDMs; also recorded: caused higher inflammatory responses in primary murine macrophages
